Patent US5466679A, “Carboranyl uridines and their use in boron neutron capture therapy” (The Ohio State University Research Foundation, priority 1994, dated 1995)
Where “and” joins values, the source holds several entries; their conditions need not be identical. Equal entries are not always repeated.

Key:
[1] = tested on: F98 glioma cells; test: Cellular uptake of boron in F98 glioma cells (16 hours incubation, DCP atomic emission spectroscopy); assay type: cell-based; conditions: for cellular uptake of boron at 16 hours: F98 glioma cells; for Boron Conc. /g, 16 hrs incubation: F98 Glioma Cells
Protocol: To illustrate the uptake and retention of the various boron-containing compounds as taught hereinabove, there were evaluated 5'-O-(o-carboran-1-ylmethyl)uridine of FIG. 1, and 3-O-(o-carboran-1-ylmethyl)-D-glucose of FIG. 2 in F98 glioma cells. The cellular uptake of boron at 16 hours for the compound of FIG. 1 was 83.8 micrograms of boron per gram of cells. The cellular uptake of boron at 16 hours for the compound of FIG. 2 was 65.2 micrograms of boron per gram of cells. […] This is an unexpected improvement in boron uptake and retention achieved by the present invention, relative to conventional Na2 B12 H11 SH.
(§1) Semiconfluent F98 glioma cells were incubated with the compound for 16 hours and after two washings with serum-free media, the cells were trypsinized, washed twice again and aliquots were analyzed for boron by Direct Current Plasma (DCP) Atomic Emission Spectroscopy. For the boron analyses there was used the following instrumentation and sample preparation for analysis:
(§2) A Spectraspan VB Direct Current Plasma-Atomic Emission Spectrometer, (Model #DCP-AES, Applied Research Laboratories, Brea, Calif.) was used for the boron determinations. This instrument combines a high resolution spectrometer with a high resolution Echelle grating and prism. The plasma source is argon gas heated to a temperature of 6000°-7000° K. The instrument settings used for analysis were: wave length 249.773 nm, argon flow 7L/min sleeve 50 psi, ceramic nebulizer 20 psi, entrance slits […], as predetermined by the manufacturer. The viewing height was […] between the arms of the "V" of the inverted "Y" configuration created by the three electrodes. The liquid uptake rate was approximately 2 mL/min. The operating power, once the plasma was established, was ^~ 40 V in the jet power supply with a 7 amp constant current output. With the operating parameters used no background correction was needed. Integration times and gain had been optimized by the manufacturer and were preset in the computer software. These particular parameters are not user alterable.
(§3) One to 2 mL of concentrated sulfuric acid, which was adequate for up to 1 g of tissue or cells, were added to 150×16 mm Pyrex culture tubes, and these were placed in a mineral oil bath, heated to 100° C. in an exhaust hood and stirred intermittently for one hour. Since no interference with the boron signal was found with the sulfuric acid-hydrogen peroxide cocktail, the amount of sulfuric acid used in digestion was determined by the ease of digestion for a particular sample, rather than by any specific ratio of sample weight to acid volume. The amount and type of tissue were critical factors for successful digestion. If the amount of tissue or cells approached 1 gram or more, there was more chance for overheating and loss of sample by bubbling. If sample size was small (<200 mg) there was more flexibility in terms of acid volume and digestion time.

[2] = tested on: F98 glioma cells; test: Persistence (retention) of boron in F98 glioma cells; assay type: cell-based
Protocol: as §1, §2, §3
The results for cellular uptake and retention (i.e. persistence studies) for certain compounds of this invention compared to the clinically-used Na2 B12 H11 SH compound are shown in the following TABLE 1.

[3] = Incubating Media […], + approximates the blank value for cells

Substance	cellular uptake of boron at 16 hours [1]	Boron Conc. /g, 16 hrs incubation ([1]; Boron Conc. in Incubating Media 13.5 µg/ml) [g⁻¹]	Persistence Studies, 12 hrs, B/g ([2]; Incubating Media […]) [B/g]	Persistence Studies, 24 hrs, B/g ([2]; Incubating Media […]) [B/g]	Persistence Studies, 48 hrs, B/g ([2]; 48 hrs, Incubating Media […]) [B/g]	Boron Conc. /g, 16 hrs incubation ([1]; Boron Conc. in Incubating Media 14.6 µg/ml) [g⁻¹]	Boron Conc. /g, 16 hrs incubation ([1]; Boron Conc. in Incubating Media 58.0 µg/ml) [g⁻¹]	Boron Conc. /g, 16 hrs incubation ([1]; Boron Conc. in Incubating Media 116.0 µg/ml) [g⁻¹]	Persistence Studies, 12 hrs, B/g [2, 3]	Persistence Studies, 24 hrs, B/g [2, 3]	time to attain background levels (rapidly removed) ([2]; F98 glioma cells) [h]
3-O-(o-Carborany-1-ylmethyl)-D-glucose [FIG. 2]	65.2 micrograms of boron per gram of cells										
5'-O-(o-Carboran-1-ylmethyl)uridine [FIG. 1]	83.8 micrograms of boron per gram of cells	88.9	23.9	19.3	10.5						
sodium mercaptoundecahydro-closo-dodecaborane [Na2 B12 H11 SH]	about 2.0 micrograms of boron per gram of cells					4.3	7.2	26.7	3.1 B/g and 2.8 B/g and 3.4 B/g	.4 B/g and .8 B/g and 1.8 B/g	6 to 12
